Experimental data published in patent publication US9307757B2, “Monoalkyl sulfosuccinates in pesticide formulations and applications” (AKZO NOBEL CHEMICALS INTERNATIONAL B.V., priority 2009, dated 2016).

Columns and labels:
[1] = Designed experiment: percentage of separation of aqueous mixtures of pesticide, adjuvant and hydrotrope (FIG. 2 ternary diagram); assay type: physicochemical; details: pesticide formulation containing AGAR 7053 as adjuvant
Description: The performance of the sodium monobutyl sulfosuccinate as hydrotrope for pesticide formulation containing the AGAR 7053 as adjuvant was also confirmed by the results of a designed experiment.
The numbers associated with the small colored bar in the upper left hand corner of the Figure give the percentage of separation in the samples. The colors in the bar are related to the colored regions in the ternary diagram. As the regions in the graph go from red to blue the percentage of separation goes to zero.

[2] = Stability and uniformity of high-load glufosinate-ammonium formulation (FIG. 1); assay type: physicochemical; details: 1:1 mixture glufosinate-ammonium active and ACAR 7053 (C8 ether sulfate adjuvant), hydrotrope present, FIG. 1C
Description: The unique structure of the monoalkyl sulfosuccinates of structure (I) renders them the capability of compatibilizing or stabilizing the highly concentrated components in the pesticide/herbicide formulation. Such capability is best illustrated by the performance of monoalkylsulfosuccinates, particularly of sodium monobutyl sulfosuccinate in the high load glufosinate-ammonium formulations. In these formulations, the active loading is at the highest (280 g/l). As the active content increases, the adjuvant content increases and the water content is reduced. Consequently, there is not enough water to solubilize both the herbicide active and the adjuvant. Without the action of a hydrotrope, the two components would separate.
Without hydrotrope, the formulation is a hazy mixture when freshly mixed (FIG. 1A) that separates into two layers upon standing (FIG. 1B).

## CCCCOC(=O)C(CC(=O)[O-])S(=O)(=O)O.[Na+] (stereo not drawn) [sodium monobutyl sulfosuccinate]
[1]
  performance as hydrotrope (separation of samples): performed as a hydrotrope over a wide range of concentrations
[2]
  appearance of formulation when freshly mixed: clear
  stability of formulation after prolonged standing: retains that clarity and uniformity
